Structures are written as SMILES. Entries after “also recorded” stand apart in the source; their conditions may differ. Where only a bound is given, the exact number is not on record here.

This note sets out measurements from US20020068351A1, “Human brain phosphodiesterase” (SmithKline Beecham Corporation, priority 1994, published 2002).

Data set [1] addresses hPDE IVB (Homo sapiens, UniProt Q07343). The data set can be described thus: PDE assay: cAMP hydrolysis by recombinant hPDE IVB in yeast lysate supernatant.
Method: PDE Assays and Inhibitor Studies—PDE activity was determined in 100,000×g supernatant fractions of yeast cell lysates. […] For studies in which the IC50s of various inhibitors were determined, compounds were present in the reaction mixture at concentrations that varied over three orders of magnitude. Reactions were conducted at 30° C. for 30 min.
Appropriate corrections were made for the changes in specific activity of the substrate. […] Statistical comparisons between one-site and two-site fits were conducted via F test.
Data set [2] has as its system wild-type yeast cells. As to the kind of experiment: Yeast control: killing of wild-type cells.
Method: (§1) For heat shock, cells are replicated from the master plate onto two plates each containing the same medium as describe above, one of which is preheated to 55° C. for 1 hour. Cells transferred to the preheated plate are incubated at 55° C. for 5 minutes and then shifted to 30° C. For monitoring growth on acetate, the master plate is replicated to a plate containing the same medium except 2% potassium acetate instead of glucose. Growth is scored after five days at 5 days at 30° C.
Data set [3] deals with PDE-deficient mutant cells expressing the human PDE IV. As to the kind of experiment: Yeast growth arrest assay in PDE-deficient cells expressing human PDE IV.
Method: as §1

Sequence of hPDE IVB (Q07343 1-564 isoform Q07343-2): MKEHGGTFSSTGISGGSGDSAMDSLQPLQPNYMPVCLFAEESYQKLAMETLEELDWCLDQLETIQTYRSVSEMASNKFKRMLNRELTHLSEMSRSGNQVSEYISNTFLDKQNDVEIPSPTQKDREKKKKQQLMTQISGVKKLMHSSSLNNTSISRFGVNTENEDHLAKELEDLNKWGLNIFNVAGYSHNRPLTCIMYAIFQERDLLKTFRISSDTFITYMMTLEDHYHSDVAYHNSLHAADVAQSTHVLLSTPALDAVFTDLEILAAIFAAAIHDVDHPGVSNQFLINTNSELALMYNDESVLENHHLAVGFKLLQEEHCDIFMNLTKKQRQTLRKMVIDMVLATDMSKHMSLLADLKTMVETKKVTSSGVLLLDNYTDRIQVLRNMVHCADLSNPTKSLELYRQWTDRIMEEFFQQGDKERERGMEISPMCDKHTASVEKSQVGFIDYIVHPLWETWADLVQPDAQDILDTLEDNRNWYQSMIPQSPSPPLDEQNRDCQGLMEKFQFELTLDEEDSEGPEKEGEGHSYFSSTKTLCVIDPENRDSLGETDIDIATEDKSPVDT

For orientation: IC50 means the concentration that inhibits the measured activity by half. On to `CN/C(=N\c1ccc(C2=NNC(=O)CC2C)cc1)NC#N` (stereo not drawn) [siquazodan, siguazodan], for which the IC50 in data set [1] is more than 30 µM.

For the compound `COc1ccc(C2CNC(=O)C2)cc1OC1CCCC1` (stereo not drawn) [rolipram], the killing effect entry in data set [2] and in data set [3] (under normal growth conditions) was “no killing effect” throughout. Besides, the cytotoxicity entry in data set [3] (under growth arrest conditions) is “cytotoxic”.

In general, Km refers to the substrate concentration at which the rate is half of its maximum. In the case of `Nc1nc2c(ncn2[C@@H]2O[C@@H]3COP(=O)(O)O[C@H]3[C@H]2O)c(=O)[nH]1` [cGMP], the “hydrolysis of cGMP as substrate” value in data set [1] (hPDE IVB, substrate concentrations as great as 10 mM) is recorded as “very poor activity; also recorded: No detectable hydrolysis”. The Km in data set [1] (substrate of hPDE IVB) is more than 10 mM.
